This experiment deals with GCN2 (Homo sapiens, UniProt Q9P2K8). Put plainly: GCN2 enzymatic endpoint assay: phosphorylation of GFP-eIF2α measured by TR-FRET (Lanthascreen). Type of experiment: biochemical. As to conditions: tested as described in Example 77; compound and/or hydrochloride, dihydrochloride or trifluoroacetic acid salt; read-out: IC 50 Activity. An outline of the steps:
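Reaction started with 2 μM ATP and 80 nM GFP-labelled eIF2α substrate at room temperature, stopped with EDTA after 90 minutes. Phospho-eIF2α detected by terbium-labelled antibody TR-FRET; activity taken as 520 nm (fluorescein) to 495 nm (terbium) emission ratio.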

Experimental findings from patent publication US11046699B2, “Pyrazolo-pyrimidin-amino-cycloalkyl compounds and their therapeutic uses” (RAPT THERAPEUTICS, INC., priority 2018, dated 2021) are described below.

Sequence of GCN2 (Q9P2K8 whole entry): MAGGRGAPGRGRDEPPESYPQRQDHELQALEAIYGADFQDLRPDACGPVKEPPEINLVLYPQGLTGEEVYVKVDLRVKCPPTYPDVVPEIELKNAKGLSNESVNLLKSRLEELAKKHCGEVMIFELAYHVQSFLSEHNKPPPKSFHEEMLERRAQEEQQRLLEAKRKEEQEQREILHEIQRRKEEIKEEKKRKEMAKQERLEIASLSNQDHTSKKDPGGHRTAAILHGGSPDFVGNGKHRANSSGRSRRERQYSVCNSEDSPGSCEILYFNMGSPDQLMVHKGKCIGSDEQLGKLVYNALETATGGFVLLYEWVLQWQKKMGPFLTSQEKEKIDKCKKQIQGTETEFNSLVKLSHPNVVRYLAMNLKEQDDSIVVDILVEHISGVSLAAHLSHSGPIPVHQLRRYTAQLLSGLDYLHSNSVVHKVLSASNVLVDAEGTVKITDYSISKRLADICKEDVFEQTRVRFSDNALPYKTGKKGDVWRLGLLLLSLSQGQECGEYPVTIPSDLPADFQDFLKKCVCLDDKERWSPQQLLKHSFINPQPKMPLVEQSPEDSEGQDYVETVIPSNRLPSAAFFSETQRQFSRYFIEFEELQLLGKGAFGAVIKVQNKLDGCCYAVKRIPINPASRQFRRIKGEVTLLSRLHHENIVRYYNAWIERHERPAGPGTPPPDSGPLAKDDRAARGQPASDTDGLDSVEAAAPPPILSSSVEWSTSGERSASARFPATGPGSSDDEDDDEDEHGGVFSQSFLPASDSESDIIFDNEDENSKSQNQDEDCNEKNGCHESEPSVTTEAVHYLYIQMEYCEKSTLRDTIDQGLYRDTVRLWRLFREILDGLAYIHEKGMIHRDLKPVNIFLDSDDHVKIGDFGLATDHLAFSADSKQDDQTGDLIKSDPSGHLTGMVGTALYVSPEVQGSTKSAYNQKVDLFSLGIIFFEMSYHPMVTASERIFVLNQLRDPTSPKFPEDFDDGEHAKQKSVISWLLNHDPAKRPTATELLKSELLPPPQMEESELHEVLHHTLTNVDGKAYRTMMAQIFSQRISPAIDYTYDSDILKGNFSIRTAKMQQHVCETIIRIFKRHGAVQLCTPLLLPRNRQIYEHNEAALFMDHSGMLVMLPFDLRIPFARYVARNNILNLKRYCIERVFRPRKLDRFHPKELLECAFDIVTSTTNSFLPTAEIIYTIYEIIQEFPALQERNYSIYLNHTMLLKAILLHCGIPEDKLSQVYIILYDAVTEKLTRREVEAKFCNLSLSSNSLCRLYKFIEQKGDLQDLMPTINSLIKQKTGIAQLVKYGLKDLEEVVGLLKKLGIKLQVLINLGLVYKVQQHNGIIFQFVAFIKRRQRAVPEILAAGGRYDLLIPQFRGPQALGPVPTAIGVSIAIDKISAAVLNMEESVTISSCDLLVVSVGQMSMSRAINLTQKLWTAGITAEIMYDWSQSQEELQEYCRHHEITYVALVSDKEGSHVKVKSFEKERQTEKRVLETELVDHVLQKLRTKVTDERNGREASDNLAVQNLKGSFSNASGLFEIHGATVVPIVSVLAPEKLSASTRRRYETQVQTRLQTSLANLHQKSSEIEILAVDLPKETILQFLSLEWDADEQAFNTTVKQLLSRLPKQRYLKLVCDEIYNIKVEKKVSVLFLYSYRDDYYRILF

For `Cc1nnc(-c2ccc(-n3nc(Br)c4cnc(N[C@@H]5CC[C@@](C)(C(=O)N6CCOCC6)C5)nc43)cc2)s1` [[(1R,3R)-3-[[3-bromo-1-[4-(5-methyl-1,3,4-thiadiazol-2-yl)phenyl]pyrazolo[3,4-d]pyrimidin-6-yl]amino]-1-methyl-cyclopentyl]-morpholino-methanone], the IC50 is 25 to 200 nM.
Then `Cc1nnc(-c2ccc(-n3nc(Br)c4cnc(N[C@@H]5CC[C@@](C)(C(=O)N6CCCC6)C5)nc43)cc2)s1` [[(1R,3R)-3-[[3-bromo-1-[4-(5-methyl-1,3,4-thiadiazol-2-yl)phenyl]pyrazolo[3,4-d]pyrimidin-6-yl]amino]-1-methyl-cyclopentyl]-pyrrolidin-1-yl-methanone], with 25 to 200 nM; and `CC1(C(=O)N2CC3CCC(C2)O3)CC[C@@H](Nc2ncc3c(Br)nn(-c4cc(F)c5ncccc5c4)c3n2)C1` (stereo partly drawn) [[(3R)-3-[[3-bromo-1-(8-fluoro-6-quinolyl)pyrazolo[3,4-d]pyrimidin-6-yl]amino]-1-methyl-cyclopentyl]-(8-oxa-3-azabicyclo [3.2.1]octan-3-yl)methanone], with less than 25 nM.
Regarding `C[C@@H]1CN(C(=O)C2(C)CC[C@@H](Nc3ncc4c(Br)nn(-c5cc(F)c6ncccc6c5)c4n3)C2)C[C@@H](C)O1` (stereo partly drawn) [[(3R)-3-[[3-bromo-1-(8-fluoro-6-quinolyl)pyrazolo[3,4-d]pyrimidin-6-yl]amino]-1-methyl-cyclopentyl]-[(2R,6R)-2,6-dimethylmorpholin-4-yl]methanone], the IC50 is 25 to 200 nM.
In the case of `CC1(C(=O)N2CCOCC2)CC[C@@H](Nc2ncc3c(Br)nn(-c4cc(F)c5ncccc5c4)c3n2)C1` (stereo partly drawn) [[(3R)-3-[[3-bromo-1-(8-fluoro-6-quinolyl)pyrazolo[3,4-d]pyrimidin-6-yl]amino]-1-methyl-cyclopentyl]-morpholino-methanone] it was less than 25 nM.
In the case of `CC1(C(=O)N2CCNCC2)CC[C@@H](Nc2ncc3c(Br)nn(-c4cc(F)c5ncccc5c4)c3n2)C1` (stereo partly drawn) [[(3R)-3-[[3-bromo-1-(8-fluoro-6-quinolyl)pyrazolo[3,4-d]pyrimidin-6-yl]amino]-1-methyl-cyclopentyl]-piperazin-1-yl-methanone] it was less than 25 nM.
In the case of `Cc1nnc(-c2ccc(-n3nc(Br)c4cnc(N[C@@H]5CCC(C)(C(=O)N6CCNCC6)C5)nc43)cc2)o1` (stereo partly drawn) [[(3R)-3-[[3-bromo-1-[4-(5-methyl-1,3,4-oxadiazol-2-yl)phenyl]pyrazolo[3,4-d]pyrimidin-6-yl]amino]-1-methyl-cyclo-pentyl]-piperazin-1-yl-methanone] it was 25 to 200 nM.
Regarding `Cc1nnc(-c2ccc(-n3nc(Br)c4cnc(N[C@@H]5CCC(C)(C(=O)N6C[C@@H](C)O[C@H](C)C6)C5)nc43)cc2)o1` (stereo partly drawn) [[(3R)-3-[[3-bromo-1-[4-(5-methyl-1,3,4-oxadiazol-2-yl)phenyl]pyrazolo[3,4-d]pyrimidin-6-yl]amino]-1-methyl-cyclopentyl]-[(2R,6R)-2,6-dimethylmorpholin-4-yl]methanone], the IC50 was in the range of 25 to 200 nM.
In the case of `Cc1nnc(-c2ccc(-n3nc(Br)c4cnc(N[C@@H]5CCC(C)(C(=O)N6CCOCC6)C5)nc43)cc2)o1` (stereo partly drawn) [[(3R)-3-[[3-bromo-1-[4-(5-methyl-1,3,4-oxadiazol-2-yl)phenyl]pyrazolo[3,4-d]pyrimidin-6-yl]amino]-1-methyl-cyclopentyl]-morpholino-methanone] it was 25 to 200 nM.
In the case of `CC1(C(=O)N2CCN3CCOC[C@@H]3C2)CC[C@@H](Nc2ncc3c(Br)nn(-c4cc(F)c5ncccc5c4)c3n2)C1` (stereo partly drawn) [[(9aS)-3,4,6,7,9,9a-hexahydro-1H-pyrazino [2,1-c][1,4]oxazin-8-yl]-[(3R)-3-[[3-bromo-1-(8-fluoro-6-quinolyl)pyrazolo[3,4-d]pyrimidin-6-yl]amino]-1-methyl-cyclopentyl]methanone] it was 25 to 200 nM; in that of `CNC(=O)[C@]1(C)CC[C@@H](Nc2ncc3c(Br)nn(-c4cc(CCNC(=O)OC)c5ncccc5c4)c3n2)C1` [methyl N-[2-[6-[3-bromo-6-[[(1R,3R)-3-methyl-3-(methylcarbamoyl)cyclopentyl]amino]pyrazolo[3,4-d]pyrimidin-1-yl]-8-quinolyl]ethyl]carbamate], 25 to 200 nM.
